Assay results as given in patent US20220323389A1, “TREATING NON-ALCOHOLIC FATTY LIVER DISEASE AND INFLAMMATORY STEATOHEPATITIS WITH SLC25A1 INHIBITORS” (GEORGETOWN UNIVERSITY, priority 2019, published 2022).

Key:
[1] = system: C57Bl/6J mice fed with the HFD; test: Diet-Induced-Obesity (DIO) model: body weight, fat and organ weights of HFD-fed mice; format: in vivo
From the text: (§1) Cells, reagents, antibodies, primers. CTPI-2 was purchased from Enamine Ltd. (Monmouth Jct, N.J.). The anti-SLC25A1 antibody used in immunoblots was either from Santa Cruz Biotech (Dallas, Tex.), (#sc-86392), employed at 1:1000 dilution, or from Proteintech (15235-1-AP, Rosemont, Ill.), employed at 1:1000 dilution. Mice and diets. For the majority of the experiments (except for experiments harboring genetic alterations of the Slc25a1 gene), DIO C57BL/6J mice were purchased from Jackson Laboratory (Bar Harbor, Me.) between 4-6 weeks of age. Mice were acclimated in the Georgetown University animal facility for at least one week. At the indicated times, mice were randomized to a standard laboratory chow diet (Labdiet #5053, St. Louis, Mo.) or the high fat diet (Researchdiets D12492, New Brunswick, N.J.), with 60% calories derived from fat (lard), and 20% from sucrose. During the course of the experiments, mice were housed at one mouse per cage and food consumption was measured regularly. Animals were maintained in a normal light-cycle and provided with water ad libitum. CTPI-2 treatment. CTPI-2 was administered at 50 mg/kg via intra-peritoneal injection on alternate days. CTPI-2 was diluted either in DMSO (at 0.2% final concentration) using DMSO as vehicle control, or in 0.47% Sodium Bicarbonate (NaCO3) at a final concentration of 14 mM. NaCO3 (0.47%) served as vehicle control. Immunoblot of murine tissues. Frozen tissue samples were homogenized in radioimmunoprecipitation (RIPA) buffer with protease inhibitor cocktails. Protein quantification was done by using a Coomassie (Bradford) Protein Assay Kit (Pierce, Waltham Mass.). Equal amount of protein lysate was loaded and separated by Novex™ 4-20% Tris-Glycine Mini Gel (Invitrogen, Carlsbad, Calif.), then transferred to a PVDF membrane. Appropriate horseradish peroxidase-conjugated secondary antibody (Invitrogen) was applied after incubation with primary antibody. SuperSignal™ West Pico PLUS Chemiluminescent Substrate (Thermo Fisher Scientific, Waltham, Mass.) was used for protein detection. SLC25a1 strains. The original Slc25a1 tm1a strain was purchased from the Mutant Mouse Resource and Research Center (MMRRC, Chapel Hill, N.C.) (C57BL/6N-Slc25a1^tm1a(EUCOMM)Wtsi, RRID: MMRRC_042258-UCD). The Tg(Alb-cre)21M (Alb-Cre) mice were purchased from Jackson Laboratory (#003574). Slc25a1^+/−, Slc25a1^fl/fl and Alb/Cre mice were genotyped by conventional PCR with genomic DNA extracted from the mouse tail biopsies. Agarose gel electrophoresis was used for analysis of PCR product analysis. The PCR conditions used were as follows: 95° C. for 4 minutes, followed by 40 cycles (95° C. for 30 seconds, 65° C. for 30 seconds, and 72° C. for 50 seconds), 72° C. for 2 min then kept in 4° C. before used. Histological Analysis. Assessment of steatosis was performed on paraffin embedded H&E stained sections derived from 3-6 animals and on multiple images for each animal. The steatosis grade was scored according to the degree of liver involvement with 0, <5%; 1, 5% to 33%; 2, 33% to 50%; and 3, >50%. Alternatively, the percentage of steatosis per area was calculated with ImageJ program. Lypidomic analysis. Targeted quantitation of triglycerides was performed using multiple reaction monitoring mass spectrometry. The samples were resolved on an CORTECS T3 2.7 μm, 2.1×30 mm column online with a triple quadrupole mass spectrometer (Xevo-TQ-S, Waters Corporation, Milford, Mass.) operating in the multiple reaction monitoring (MRM) mode. Signal intensities from all MRM Q1/Q3 ion pairs for triglycerides were ranked to ensure selection of the most intense precursor and fragment ion pair for MRM-based quantitation. […] The LC and MRM method used here for the study was developed by Waters Corporation. The metabolite ratios were calculated by normalizing the peak area of endogenous metabolites within tissue samples normalized to the internal standard. Processed data was normalized with respect to tissue weight taken for analysis. […]

[2] = system: mice fed with a normal diet; test: Body weight of mice fed control (normal) diet and treated with CTPI-2; format: in vivo; settings: CTPI-2 for 5 months
From the text: Cells, reagents, antibodies, primers. CTPI-2 was purchased from Enamine Ltd. (Monmouth Jct, N.J.). The anti-SLC25A1 antibody used in immunoblots was either from Santa Cruz Biotech (Dallas, Tex.), (#sc-86392), employed at 1:1000 dilution, or from Proteintech (15235-1-AP, Rosemont, Ill.), employed at 1:1000 dilution. Mice and diets. For the majority of the experiments (except for experiments harboring genetic alterations of the Slc25a1 gene), DIO C57BL/6J mice were purchased from Jackson Laboratory (Bar Harbor, Me.) between 4-6 weeks of age. Mice were acclimated in the Georgetown University animal facility for at least one week. […] During the course of the experiments, mice were housed at one mouse per cage and food consumption was measured regularly. […] Protein quantification was done by using a Coomassie (Bradford) Protein Assay Kit (Pierce, Waltham Mass.). […] The steatosis grade was scored according to the degree of liver involvement with 0, <5%; 1, 5% to 33%; 2, 33% to 50%; and 3, >50%. Alternatively, the percentage of steatosis per area was calculated with ImageJ program. […] Targeted quantitation of triglycerides was performed using multiple reaction monitoring mass spectrometry. […] Signal intensities from all MRM Q1/Q3 ion pairs for triglycerides were ranked to ensure selection of the most intense precursor and fragment ion pair for MRM-based quantitation. […]

[3] = system: liver of HFD-fed mice; test: Liver steatosis / steatohepatitis histology and serum chemistry in HFD-fed mice (time course); format: in vivo, mouse
From the text: as §1

[4] = system: HFD-fed mice; test: Glucose homeostasis in HFD-fed mice (fasting glucose, GTT, ITT); format: in vivo, mouse
From the text: (§2) Cells, reagents, antibodies, primers. CTPI-2 was purchased from Enamine Ltd. (Monmouth Jct, N.J.). The anti-SLC25A1 antibody used in immunoblots was either from Santa Cruz Biotech (Dallas, Tex.), (#sc-86392), employed at 1:1000 dilution, or from Proteintech (15235-1-AP, Rosemont, Ill.), employed at 1:1000 dilution. Mice and diets. For the majority of the experiments (except for experiments harboring genetic alterations of the Slc25a1 gene), DIO C57BL/6J mice were purchased from Jackson Laboratory (Bar Harbor, Me.) between 4-6 weeks of age. Mice were acclimated in the Georgetown University animal facility for at least one week. At the indicated times, mice were randomized to a standard laboratory chow diet (Labdiet #5053, St. Louis, Mo.) or the high fat diet (Researchdiets D12492, New Brunswick, N.J.), with 60% calories derived from fat (lard), and 20% from sucrose. During the course of the experiments, mice were housed at one mouse per cage and food consumption was measured regularly. Animals were maintained in a normal light-cycle and provided with water ad libitum. CTPI-2 treatment. CTPI-2 was administered at 50 mg/kg via intra-peritoneal injection on alternate days. […] Protein quantification was done by using a Coomassie (Bradford) Protein Assay Kit (Pierce, Waltham Mass.). […] The steatosis grade was scored according to the degree of liver involvement with 0, <5%; 1, 5% to 33%; 2, 33% to 50%; and 3, >50%. Alternatively, the percentage of steatosis per area was calculated with ImageJ program. […] Targeted quantitation of triglycerides was performed using multiple reaction monitoring mass spectrometry. […] Signal intensities from all MRM Q1/Q3 ion pairs for triglycerides were ranked to ensure selection of the most intense precursor and fragment ion pair for MRM-based quantitation. […] The metabolite ratios were calculated by normalizing the peak area of endogenous metabolites within tissue samples normalized to the internal standard. […]

[5] = system: SLC25A1; test: Immunoblot of SLC25A1 protein in tissues of HFD-fed mice; format: in vivo, mouse
From the text: as §2

[6] = system: HFD-fed mice; test: Inflammation and fibrosis in HFD-fed mice (serum interleukins, macrophage IHC, RT-PCR, Picro-Sirius Red); format: in vivo, mouse
From the text: as §1

[7] = system: liver gene expression program induced by the HFD; test: RNAseq, RT-qPCR and immunoblot of liver (and WAT) of HFD-fed mice; format: in vivo, mouse
From the text: as §1

[8] = system: liver of HFD-fed mice; test: Liver metabolites and lipid profile (LC-MS, Lipidyzer) in HFD-fed mice; format: in vivo, mouse
From the text: as §1

[9] = system: HepG2 cells; test: mRNA levels (RT-qPCR) in tissue culture cells treated with CTPI-2 with or without citrate; format: cell-based
Procedure: FIGS. 6 A-B show citrate and Ac-CoA levels derived from liver extracts of HFD-vehicle (light) or HFD+CTPI-2 (dark). FIGS. 6C-D show levels of the indicated triacylglycerides (TAG, (FIG. 6C)) and total fatty acids (FA, panel D) detected with the Lipidyzer platform. N=2-3 mice per group. FIG. 6E-F show levels of the indicated metabolites detected with targeted LC-MS analysis. […] The indicated mRNA levels were analyzed with RT-qPCR. H. Model summarizing findings as explained in the Examples. Bars indicate Standard Deviations. *p≤0.05, **p≤0.01, ***p≤0.001.
To corroborate the direct effect of CTPI-2 and of citrate in the regulation of the genes identified by our analysis, the effects of the drug and of citrate supplementation in tissue culture cells were explored.

[10] = molecular target: SLC25A1 (Homo sapiens, UniProt P53007); settings: previous studies performed in vitro (Fernandez et al.); cited from earlier work
[11] = HFD-fed mice, CTPI-2 50 mg/kg i.p. alternate days
[12] = time course of CTPI-2 treatment
[13] = HFD-fed mice, CTPI-2 vs vehicle
[14] = liver, 4 weeks of CTPI-2 treatment
[15] = liver, normalized to HFD-vehicle

Sequence of SLC25A1 (Homo sapiens, UniProt P53007) (P53007 14-311, species assumed): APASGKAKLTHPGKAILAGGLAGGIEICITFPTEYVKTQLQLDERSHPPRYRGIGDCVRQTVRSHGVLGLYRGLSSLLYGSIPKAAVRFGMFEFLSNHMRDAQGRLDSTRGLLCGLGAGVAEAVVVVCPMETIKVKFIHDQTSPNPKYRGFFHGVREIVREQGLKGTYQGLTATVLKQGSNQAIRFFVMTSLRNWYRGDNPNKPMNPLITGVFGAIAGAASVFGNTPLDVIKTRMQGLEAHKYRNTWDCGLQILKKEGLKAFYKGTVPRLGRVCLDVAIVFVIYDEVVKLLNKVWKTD

SMILES: O=C(O)c1ccccc1NS(=O)(=O)c1ccc(Cl)c([N+](=O)[O-])c1 [CTPI-2]
- feeding behavior (daily food consumption) ([1]; C57BL/6J mice, CTPI-2 50 mg/kg i.p. on alternate days): did not modify feeding behavior
- body weight gain ([1]; HFD 6 months, CTPI-2 50 mg/kg i.p. alternate days, started after 12 weeks of HFD): largely prevented such weight gain
- WAT (visceral abdominal fat), also by MRI [1, 11]: reducing the WAT
- WAT weight (mass) [1, 11]: reducing their mass
- liver weight (mass) [1, 11]: reducing their mass
- pale, enlarged liver phenotype (visual examination) [1, 11]: completely reverted this phenotype
- body weights [2]: did not modify body weights
- prevention of liver steatosis relative to Cre/Alb+:Slc25a1−/− mice ([3]; HFD conditions): more effectively prevented liver steatosis
- alanine aminotransferase (ALT) levels [3, 11]: normalized
- total serum cholesterol levels [3, 11]: normalized
- serum triglyceride levels ([3]; HFD-fed mice, CTPI-2 50 mg/kg i.p. alternate days, LC-MS): normalized
- evolution to steatohepatitis ([3]; HFD-fed mice, CTPI-2 started after 3 months HFD): prevented the evolution to steatohepatitis
- liver steatosis ([3]; HFD-fed mice, CTPI-2 started after 3 months HFD, 4, 8, 12 weeks treatment): nearly completely reversed liver steatosis
- liver histology compared with normal-diet animals ([3]; after 3 months of CTPI-2 and 6 months on the HFD, most treated mice): nearly indistinguishable from those of animals fed a normal diet
- early stages of steatosis ([3]; steatosis present after 3 months HFD when CTPI-2 started): reverted these early stages of steatosis
- basal fasting glucose levels ([4]; CTPI-2 50 mg/kg i.p. alternate days): reduced the basal fasting glucose levels
- glucose tolerance test (GTT) [4, 12]: complete time-dependent normalization
- insulin tolerance test (ITT) [4, 12]: complete time-dependent normalization
- SLC25A1 expression levels in the adipose tissue [5]: reduced SLC25A1 expression levels
- SLC25A1 expression levels in the liver [5]: reduced SLC25A1 expression levels
- SLC25A1 expression levels in the pancreas [5]: not in the pancreas
- collagen in the liver (Picro-Sirius Red) ([6]; HFD-fed mice): reduction of collagen in the liver
- circulating serum IL-4 [6, 13]: increasing
- circulating serum IL-6 [6, 13]: lowered
- circulating serum IL-10 [6, 13]: increasing
- monocyte chemo-attractant protein-1 (MCP1) ([6]; HFD-fed mice, serum): reduced
- monokine induced by interferon-γ (MIG) ([6]; HFD-fed mice, serum): reduced
- adipose tissue macrophage infiltration organized in crown-like structures ([6]; HFD-fed mice, IHC): completely resolved this phenotype
- liver Kupffer cell macrophage population (F4/80) and perivascular macrophage infiltration ([6]; HFD-fed mice, IHC): reversed
- M2 markers (MRC1, FN-1, Arg1) mRNA ([6]; liver of HFD-fed mice, RT-PCR): either not affecting or increasing
- expression of anti-fibrotic cadherin 1 ([6]; liver of HFD-fed mice, RT-PCR): increase
- expression of pro-fibrotic genes (collagen 1 and 4, keratin 19, PDGFR) ([6]; liver of HFD-fed mice, RT-PCR): reduction
- pro-inflammatory markers of the M1 phenotype (mRNA) ([6]; liver of HFD-fed mice, RT-PCR): repressed
- bile acid biosynthetic pathway (RNAseq) ([7]; liver): inhibits bile acid biosynthetic pathway
- protein levels matching the gene expression pattern (immunoblot) ([7]; liver and adipose tissue): concordantly paralleled by changes in the protein levels
- cluster of genes involved in NAFLD (RNAseq) [7, 14]: down-regulated
- gene expression program induced by the HFD (RNAseq) [7, 14]: essentially reverted the gene expression program induced by the HFD
- levels of PPARγ ([7]; liver, RT-qPCR): unchanged
- PPARγ and downstream target genes CEBPα1, CEBPα2 and GLUT4 (RT-qPCR) [7, 15]: down-regulated
- master lipogenetic genes SREBP1, FASN and ACACA (RT-qPCR) [7, 15]: suppression
- genes/pathways of carbon and pyruvate metabolism, glycolysis and gluconeogenic genes (RNAseq) ([7]; liver, Fbp1, PC, PCK1/2, G6PC, G6PC3, AldoA/B, PFKL/P, PGK1, PKLR): repressed
- Ac-CoA concentration in the liver ([8]; HFD+CTPI-2 vs HFD-vehicle): significantly lower
- citrate concentration in the liver ([8]; HFD+CTPI-2 vs HFD-vehicle): significantly lower
- liver diglycerides levels ([8]; LC-MS): reduced the levels
- liver linoleic acid levels ([8]; LC-MS): reduced the levels
- liver monoglycerides levels ([8]; LC-MS): reduced the levels
- liver palmitic acid levels ([8]; LC-MS): reduced the levels
- liver phosphatidylglycerol levels ([8]; LC-MS): reduced the levels
- liver concentration of long chain triglycerides ([8]; Lipidyzer platform): significantly diminished
- total level of free fatty acids in the liver ([8]; Lipidyzer platform, particularly chain 16 to 25): significantly diminished
- liver concentration of lactate ([8]; targeted LC-MS): decreased
- liver concentration of pyruvate ([8]; targeted LC-MS): decreased
- effect of citrate supplementation on CTPI-2 gene inhibition (FASN, ACACA, AldoA, Aldo/B) ([9]; 5 mM sodium citrate): completely rescued by citrate
- expression of FA synthesis genes FASN and ACACA ([9]; CTPI-2 5-12 hours): inhibited
- expression of glycolytic/gluconeogenesis genes AldoA and Aldo/B ([9]; CTPI-2 5-12 hours): inhibited
- SLC25A1 expression levels in vitro [10]: did not affect the expression levels of this protein
- mitochondrial citrate transport activity [10]: interfered with the mitochondrial citrate transport activity
